Data as given in patent publication US9593068B2, “Derivatives of tartaric acid” (RATIOPHARM GMBH, priority 2013, dated 2017).

Experiment: Kinetics of MMF-release during incubation in intestinal fluid of the minipig (LC-MS quantification of MMF)
Assay type: in vitro ADME, Göttingen SPF minipig
Details: diluted small intestinal fluid (1/20 v/v with 50 mM KH2PO4, pH 6.8), 37° C., samples at 0-120 min; reference DMF; FIG. 1 / FIG. 2
Procedure: Investigation and Comparision of the Kinetics of MMF-Release of the Different Compounds of the Present Invention and DMF During Incubation in Intestinal Fluid of the Minipig
Intestinal fluid samples were prepared at CiToxLAB Scantox A/S. The samples were taken from 1 female Göttingen SPF minipig from CiToxLAB Scantox A/S standard stock, originally obtained from Ellegaard Göttingen Minipigs A/S, DK-4261 Dalmose, Denmark. The minipig was 10 months old and the body weight was 21 kg. The minipig was identified by an individual number tagged to the pinna of one ear (animal number is documented in the raw data).
The minipig was fasted for approximately 28 hours before sampling of intestinal fluid. On the day of sampling, the minipig was weighed and anaesthetised by an intramuscular injection in the neck or in the left hind leg (about 0.3 ml per kg body weight) of a mixture of Zoletil 50 Vet., Virbac, France (125 mg tiletamine and 125 mg zolazepam), Rompun Vet., Bayer, Germany (20 mg xylazine/ml, 6.5 ml), Ketaminol Vet., Veterinaria AG, Switzerland (100 mg ketamine/ml, 1.5 ml) and Methadon DAK, Nycomed Danmark, Denmark (10 mg methadon/ml, 2.5 ml).
Intestinal fluid was obtained by flushing one jejunal segment, measuring 30.2 cm, with saline. Intestinal fluid together with saline used for flushing was placed in centrifuge tubes. All samples were frozen at −70° C. and shipped on dry ice to the Sponsor for further use.
2.1.1. Analytical Instrument • Instrument: Acquity UPLC system coupled with a TQ detector (triple quadruple mass spectrometer)
Calibration solutions were prepared by serial dilution of SSMMF; diluted small intestinal fluid (diluted by 1/20 v/v with 50 mM KH2PO4, pH 6.8; (dil IF) was used as matrix. The dilution scheme is given below:
50 μl sample (calibration solution or sample of an incubation experiment with MMF prodrugs) was mixed with 50 μl WSISTD, 20 μl formic acid and 100 μl acetonitrile. This mixture was vortexed for 15 sec and centrifuged (13,000 rpm, 3 min). Thereafter, 4 μl of the supernatant were subjected to LC-MS analysis.
2.2. Incubation Experiments with DMF (Reference) and Compounds of the Invention
Stock solutions were prepared in DMSO. Concentrations in stock solutions were 5.00, 2.50 and 1.67 mmol for compounds with one, two and three molar MMF equivalents.
In a HPLC glass vial, 8 μl of stock solution were mixed with 792 μl dil IF and the mixture was stirred (250 rpm) in a water bath (T=37° C.).
Immediately after mixing as well as at t=15 min, 30 min, 60 min, 90 min and 120 min, 50 μl were withdrawn and prepared for LC-MS analysis as described in chapter. 2.1.3.
Incubations were continued and in case the result of analysis of the 120 min indicated the presence of remaining intact MMF prodrug, additional samples were taken (t=360 or 420 min and at 1,260 or 1,320 min) and analysed.
The concentration/peak area ratio data pairs were subjected to regression analysis with 1/x weighting and the resulting calibration equation was used to quantify the MMF content in incubation samples.

hydrolyzation (to MMF) compared to DMF	release kinetics (MMF release) compared to DMF	Structure (SMILES)
modified hydrolyzation compared to DMF	significantly slower than the one of DMF	COC(=O)/C=C/C(=O)O[C@@H](C(=O)OC(C)C)[C@@H](OC(=O)/C=C/C(=O)OC)C(=O)OC(C)C [Example 2, (E)-But-2-enedioic acid (1R,2R)-1,2-bis-isopropoxycarbonyl-2-((E)-3-methoxycarbonyl-acryloyloxy)-ethyl ester methyl ester]
modified hydrolyzation compared to DMF	significantly slower than the one of DMF	CCOC(=O)[C@H](OC(=O)/C=C/C(=O)OC)[C@@H](OC(=O)/C=C/C(=O)OC)C(=O)OCC [Example 1, (E)-But-2-enedioic acid (1R,2R)-1,2-bis-ethoxy-carbonyl-2-((E)-3-methoxycarbonyl-acryloyloxy)-ethyl ester methyl ester]

Structure (SMILES)	hydrolyzation (to MMF) compared to DMF	release kinetics (MMF release) compared to DMF
COC(=O)/C=C/C(=O)OCCN(CCO)CCOC(=O)/C=C/C(=O)OC [Example 3, (2-Hydroxy-ethyl)-bis-[2-((E)-3-methoxycarbonyl-acryloyloxy)-ethyl]-amine]	modified hydrolyzation compared to DMF	significantly slower than the one of DMF
